The values below are quoted from earlier work in US8808764B2, “Methods and compositions for increasing growth hormones” (Quality IP Holdings, Inc., priority 2012, dated 2014).

Bounds are passed on as bounds.

For one series, the system named is GH. Conditions: subcutaneous injection of 0.06 IU in GH deficient subjects.

With `N=C(N)NCCC[C@H](N)C(=O)O` [arginine], the “elevation of serum hGH levels” value with hGH (30 g, intravenous, in males) is 8.6 fold. Moreover, the “increase in hGH levels” value in the series on hGH (intravenous infusion of 183 mg/kg body weight in females) is on record as ≥ 20 fold.

As for “HGH: human growth hormone given by subcutaneous injection to GH deficient subjects”, the “mean level of GH reached” value in the series on GH is on record as 0.4 ng/mL.
